Data: publication PMC6030096, “Synergy of Physico-chemical and Biological Experiments for Developing a Cyclooxygenase-2 Inhibitor” (Scientific Reports, 2018)

Experiments:
[1] = target: T1, COX-1 (Homo sapiens, UniProt P23219); assay: Human whole blood assay for COX-1 (A23187 stimulated TxB2); format: cell-based; details: final conc 1 µM, A23187 50 µM
T1 construct: endogenous in cells; host or cells: human whole blood (heparinized, venipuncture)
Text: (§1) The use of human blood for the whole blood assay was duly approved by the institutional ethical committee of the University for human subjects. Production of prostaglandin PGE2 during lipopolysaccharide (LPS) stimulated whole blood was used to quantify COX-2 inhibitory activity whereas calcium ionophore (A23187) stimulated thromboxane (TxB2) production was used to measure COX-1 inhibitory activity of the compounds.
Approval for the use of human blood was taken from the institutional ethical committee of Guru Nanak Dev University Amritsar and informed consent was obtained from the subject[32],[33]. All experiments were performed in accordance with the relevant guidelines and regulations. By venipuncture, the blood sample was collected in heparinized tubes. […] Each sample in duplicate was assayed for TxB2 (the breakdown product of TxA2) using TXB2 Express ELISA kit (Cayman Chemicals, Ann Arbor, MI) by the reported protocol.

[2] = target: T2, COX-2 (Homo sapiens, UniProt P35354); assay: COX-2 enzyme immunoassay (Cayman inhibitor screening kit); format: biochemical; parameters: purchased Cayman Chemical Co. 560131; details: for IC50: enzyme immunoassay, average of three experiments; for Selectivity index: SI = IC50 (COX-1)/ IC50 (COX-2)
T2 sequence (P35354 18-604): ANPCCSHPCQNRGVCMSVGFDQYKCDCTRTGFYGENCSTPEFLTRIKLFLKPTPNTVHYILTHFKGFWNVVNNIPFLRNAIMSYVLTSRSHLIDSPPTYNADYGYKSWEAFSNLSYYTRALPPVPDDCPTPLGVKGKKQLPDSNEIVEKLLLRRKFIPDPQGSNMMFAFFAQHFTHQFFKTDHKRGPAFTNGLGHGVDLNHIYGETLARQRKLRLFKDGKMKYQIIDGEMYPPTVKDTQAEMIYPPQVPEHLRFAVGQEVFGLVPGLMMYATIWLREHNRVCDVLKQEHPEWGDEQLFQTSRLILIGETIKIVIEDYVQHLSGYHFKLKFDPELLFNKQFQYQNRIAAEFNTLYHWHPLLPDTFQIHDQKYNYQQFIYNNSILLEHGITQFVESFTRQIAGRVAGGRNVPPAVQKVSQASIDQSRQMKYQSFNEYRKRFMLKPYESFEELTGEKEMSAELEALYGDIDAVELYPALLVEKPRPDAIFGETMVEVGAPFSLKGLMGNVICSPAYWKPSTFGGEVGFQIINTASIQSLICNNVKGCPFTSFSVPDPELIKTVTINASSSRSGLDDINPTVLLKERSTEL
Description: Principally, the catalytic activity of COX-1/2 is slowed down in the presence of its inhibitor and quantitatively, it is inversely proportional to the amount of prostaglandin produced in the presence of inhibitor.
The enzyme inhibition screening assay kits for COX-1/2 and 5-LOX with item no. […] The 100% initial activity tubes for the two enzymes contained 10 µL heme and 10 µL of the enzyme in 160 µL reaction buffer. Then 10 µL inhibitor (compound of above mentioned concentrations) was added to the inhibitor tubes for the two enzymes and 10 µL of vehicle (DMSO) was added to 100% initial activity and background tubes. All the tubes were incubated for 10 min at 37 °C and the reaction was started by adding 10 µL arachidonic acid to all the reaction tubes. After incubation of the reaction vials for 2 min at 37 °C, the enzyme catalysis was stopped by adding 30 µL saturated stannous chloride solution to each test tube and solutions were kept at 0–4 °C. For EIA (enzyme immunoassay) procedure: the EIA buffers and assay specific reagents were prepared as written in the manual. In the COX dilutions, two test tubes labelled as BC1 and BC2 were taken to prepare background samples. Each tube contained 990 µL of EIA buffer and 10 µL of background COX-1 for BC1 and 10 µL of background COX-2 for BC2. The samples for 100% initial activity were diluted in three vials labelled IA1, IA2 and IA3 for each enzyme. IA1 contained 990 µL EIA buffer and 10 µL enzyme, IA2 has 950 µL buffer and 50 µL solution of IA1 (1:2000 dilution of original sample) and IA3 carried 500 µL of buffer and 500 µL of IA2 solution (1:4000 dilution of original sample). Each solution was thoroughly mixed. Solutions of IA2 and IA3 were used for the assaying. […] C2 contained 950 µL buffer and 50 µL solution of C1 (1:2000 dilution of original sample) and vial C3 was charged with 500 µL buffer and 500 µL solution from C2 (1: 4000 dilution of original sample). Only C2 and C3 were run in the assay. After all the reaction dilutions, these were then subjected to 96 wells plate. The wells were divided as: 2 blank wells, 2 NSB wells (non-specific binding), 3 B0 wells (maximum binding), one TA well (total activity), 16 wells for standards (S1–S8 in repeat), 2 BC1 and 2 BC2 wells. Compounds (inhibitors) were put in all the other wells. The sequence for the addition of reagents onto the plate was as per the protocol of the assay kit. […] For developing the plate; it was emptied and washed with wash buffer 5 times followed by the addition of 200 µL Ellman’s reagent to each well. 5 µL tracer was added to the TA well. Then the plate was covered and left for 60 mins for development in dark. After the respective time period the cover was removed and the plate was read at 420 nm. %B/Bo (i.e. % sample or maximum bound) value for standards S1-S8 and each sample was determined from the absorbance values obtained according to the calculation given in the protocol. The amount of prostaglandins formed during the enzymatic reaction was calculated from the values of %B/Bo for all the compounds at all concentrations with the help of the standard curve (plotted between %B/Bo of standards and raw data given in the protocol). Then the prostaglandin formed at each concentration of all the compounds and percentage inhibition values were calculated. The graph between percent inhibition of the enzyme and corresponding concentration of the compound provided IC50 values for the compounds.

[3] = target: T2, COX-2; assay: Human whole blood assay for COX-2 (LPS stimulated PGE2); format: cell-based; parameters: endogenous in cells; host or cells: human whole blood, aspirin-pretreated, LPS-stimulated; details: final conc 1 µM, LPS 10 µg mL^−1
Description: as §1
COX-2 assay was performed by inactivating COX-1 with 50 µL aspirin (10 µg/mL) per 400 µL of blood sample.

T1 sequence (P23219 24-599): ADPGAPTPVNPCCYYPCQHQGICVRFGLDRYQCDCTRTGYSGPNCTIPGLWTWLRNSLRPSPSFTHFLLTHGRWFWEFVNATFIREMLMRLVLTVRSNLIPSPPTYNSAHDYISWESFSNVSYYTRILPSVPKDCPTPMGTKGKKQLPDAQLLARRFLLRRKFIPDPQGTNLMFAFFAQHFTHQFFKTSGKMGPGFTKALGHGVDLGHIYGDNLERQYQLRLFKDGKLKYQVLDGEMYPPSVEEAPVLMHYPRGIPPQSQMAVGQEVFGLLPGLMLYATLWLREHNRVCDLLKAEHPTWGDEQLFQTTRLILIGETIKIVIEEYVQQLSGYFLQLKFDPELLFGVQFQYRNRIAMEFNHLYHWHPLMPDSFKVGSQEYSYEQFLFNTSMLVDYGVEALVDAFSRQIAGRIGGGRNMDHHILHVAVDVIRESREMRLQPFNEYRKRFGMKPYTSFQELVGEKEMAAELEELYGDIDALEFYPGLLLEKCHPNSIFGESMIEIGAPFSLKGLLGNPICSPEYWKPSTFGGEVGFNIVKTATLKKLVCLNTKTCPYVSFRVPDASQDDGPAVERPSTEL

Row | Structure (SMILES) | Production of TXB2, +Ca^2+ Ionophore [1] | IC50 [2] | Production of PGE2, +LPS [3] | Selectivity index [2]
1 | O=C1Nc2ccccc2C1=Cc1cn(C[C@H](O)Cn2c3ccccc3c(=O)c3ccccc32)c2ccccc12 [(S)-3c] | 1.80 ± 0.5 ng/mL | 800 ± 75 nM | 0.97 ± 0.09 ng/mL | –
2 | O=C1NC(=O)C(=Cc2cn(CCCn3c4ccccc4c(=O)c4ccccc43)c3ccccc23)C(=O)N1 [Compound 4a] | 1.84 ± 0.11 ng/mL | 100 ± 60 nM | 1.00 ± 0.13 ng/mL | 300
3 | O=C1Nc2ccccc2C1=Cc1cn(CCCn2c3ccccc3c(=O)c3ccccc32)c2ccccc12 [Compound 4c] | 1.70 ± 0.3 ng/mL | 300 ± 15 nM | 1.01 ± 0.14 ng/mL | 13.33
